The values that follow come from US5874461A, “Use of Nebivolol as an anti-atherogenic” (priority 1995, dated 1999).

By IC50 is commonly meant the midpoint of a concentration-inhibition curve. A word on the EC50: it is the concentration needed to bring the measured effect to its halfway point.

Each structure is given as a SMILES string. Like-named read-outs stand apart in the source and are kept apart here.

In assay [1] the test system is C6 glioma cells. The assay can be described thus: Protection of C6 glioma cells from glutathione depletion-mediated oxidative stress (toxicity, LDH assay). The note with it: 10 mM glutamate; for IC50: 48 hr, read-out: Protection IC50 (mean ± SD, n = 3). It is filed as cell-based. The text has this:
(§1) Competitive inhibition by glutamate of cystine uptake in certain cells leads to glutathione depletion and oxidative stress. This oxidative stress model has been described for glial C6 glioma cells (Kato et al., 1992. A mechanism for glutamate toxicity in the C6 glioma cells involving inhibition of cystine uptake leading to glutathione depletion. Neurosci. 48:903-914) and for the neuronal cell line N18RE105 (Murphy et al., 1989. Glutamate toxicity in a neuronal cell line involves inhibition of cystine transport leading to oxidative stress. Neuron 2:1547-1558).
(§2) Cell culture: The C6 glioma cell line (American Type Culture Collection, CCL 107) was cultivated in DMEM supplemented with 2 or 4 mM glutamine, 1 mM pyruvate and 5 or 10% heat-inactivated foetal calf serum. Cultures were maintained at 37° C. in an air/5~10% CO2, water saturated atmosphere.
(§3) Glutathione depletion and evaluation of drugs as antioxidants: Experiments were carried out with cultures plated at 30,000~50,000 cells/cm^2 in 24-well culture plates (for toxicity and lipid peroxide measurements) or at 136,000 cells/cm^2 in 96-well culture plates (for GSH determination). After 8-24 hr, the cultures were switched to culture medium in the absence or presence of the cystine uptake inhibitor glutamate at a final concentration of 10 mM. In order to test drugs for inhibition of oxidative stress, the drug was added together with glutamate (final concentration of solvent was 0.01% hydroxypropyl-β-cylodextrin, 0.1% DMSO). Intracellular glutathione levels were measured after 6~8 hr, lipid peroxides were measured after 14~20 hr, and toxicity and protection were analysed after 48 hr using an LDH assay according to the method of Bergmeyer and Bernt (UV-assay with pyruvate and NADH. In: Methods of Enzymatic Analysis. 1974. H. U. Bergmeyer, ed. Acad. Press, New York, 2nd Ed., pp 574-579).

Assay [2] deals with C6 glioma cells. The assay can be described thus: GSH content in C6 glioma cultures after glutamate. It is filed as cell-based. The settings on record: for intracellular glutathione levels: 10 mM glutamate, 6 hr or more; for GSH content: glutamate 10 mM, without or with compound 1 μM.
Description: as §1, §2, §3
Determination of GSH content in C6 glioma cultures: GSH levels were analysed by a micromethod, essentially as described by Vandeputte et al. (A microtiterplate assay for total glutathione and glutathione disulfide contents in cultured/isolated cells: performance study of a new miniaturised protocol. 1994. Cell Biol. Toxicol. 10:415-421), with a modification in the washing and homogenisation procedures. Cells (in 96-well plates) were washed with PBS, were homogenised in 50 μl 10 mM HCl containing 1.3% 5-sulfosalicylic acid, and the homogenate was centrifuged at 1200×g for 10 min at 4° C. Forty μl of the supernatant was transferred to a well of a 96-well plate and 200 μl reagent (1 mM 5,5'-dithiobis-(2-nitrobenzoic acid), 0.34 mM NADPH and 6.3 mM EDTA in 143 mM phosphate buffer pH 7.4) was added. After 5 min equilibration to room temperature the reaction was started by adding 40 μl glutathione reductase (8.5 IU/ml 143 mM phosphate buffer, 6.3 mM EDTA pH 7.4). NADPH oxidation was followed at 414 nm for 5 minutes with a Multiskan MCC/340 (Labsystems), and the change in absorbance (DA) per min was calculated. The glutathione content was deduced from a standard curve ranging from 0.2 to 2 nmol commercial GSH per test (DA/min plotted versus concentration).

Assay [3] has as its system primary embryonic hippocampal cultures. The assay can be described thus: VitE complementation (vitE depletion) test on primary neuronal cultures. It is filed as cell-based, rats. The settings on record: for rescue of survival of vitE depleted cultures: 10^-7 M and 10^-6 M. The procedure: Primary embryonic hippocampal cultures were prepared essentially as described previously (Pauwels et al., Van Aschouw, H. P., Peeters, L., Moeremans, M., Leysen, J. E. (1992) Chronic treatment with sabeluzole protects cultured rat brain neurons from the neurotoxic effects of excitatory amino acids. Synapse, 12:271-280). Hippocampal formations of rats at embryonic day 17 were dissected and dissociated in 0.05% trypsin, 0.1 mg/ml DNase I in DMEM (Dulbecco Modified Eagle Medium). Heat-inactivated horse serum (HS) was added to a concentration of 4%, and the cells were centrifuged, washed with DMEM, and resuspended in DMEM/Ham's F12 (3:1) containing 10% HS. The cells were plated at a density of 4×10^5 cells/cm^2 in poly L-lysine (0.001%) precoated multiwell-24 plates. On day 1 in culture, the medium was changed to chemically defined CDM-R12 medium (DMEM-HEPES/Ham's F12 (3:1) containing 0.26% bovine serum albumin, 30 nM sodium selenite, 3 nM 3,3',5 triiodo-L-thyronine, 0.35 μM retinol, 0.3 μM retinol acetate, 2.3 μM DL-a-tocopherol, 2.1 μM DL-a-tocopherol acetate, 3.6 μM linolenic acid, 3.6 μM linoleic acid, 0.125% human transferrin, […], 57.7 nM corticosterone, 49 U/I insulin, 0.4 μM biotin, 10 μM L-carnitine, 83 μM D(+)-galactose, 3.3 μM glutathione, 10 μM ethanolamine, 0.1 mM putrescine; Romijn, H. J., van Huizen, F., Wolters, P. S. (1984) Towards an improved serum-free, chemically defined medium for long-term culturing of cerebral cortex tissue. Neurosci. Behav. Rev., 8:301-334). Acute and prolonged pretreatment of the, cultures was essentially as described previously (Pauwels et al., 1992). Drugs were dissolved, and diluted in 10% or 1% hydroxypropyl-β-cyclodextrin such that the final concentrations of the solvent in the acute and chronic exposures were 0.1% and 0.01% respectively. Compound A as used in the following examples is [(RRSR)+(RRRS)+(SSSR) +(SSRS)]-α-[[[2-(chroman-2-yl)-2-hydroxy-ethyl]amino]methyl]-6-hydroxy-2-chromanmethanol ethanedioate (1:1).
For vitE depletion experiments, primary cultures were set up as above, but on day 1 in culture, the medium was changed to chemically defined CDM-R12 medium with (control) or without DL-a-tocopherol (vitE) and DL-a-tocopherol acetate, in the presence or absence of test coumpound. […] Addition of compounds could rescue the cultures. […] The EC50 for complementation of vitE refers to the concentration of the compound required to restore culture survival to 50% of the survival seen for the culture grown in vitE supplemented medium. Seven concentrations of each compound were tested in triplicate, the number of independent experiments is indicated in the table, and the mean EC50 -value±SD was calculated.
Primary neuronal cultures depend on the presence of the antioxidant vitE in the culture medium for survival in vitro. When vitE depleted medium is used to grow the cultures, survival drops to ±20% of control. Compounds with antioxidative properties are able to complement the lack of vitE, and as such can when added to the culture medium, rescue vitE devoid cultures. Several nebivolol derivatives were tested at 10^-7 M and 10^-6 M in the vitE depletion test on primary neuronal cultures.
When nebivolol derivatives were administered during culture, the cultures could be rescued to a certain extent. 100% vitE complementation refers to the survival of a cell culture which is indifferent from a vitE containing cell culture.
When hydroxynebivolol was administered during culture, the cultures could be rescued. The EC50 refers to the concentration at which the culture is rescued for 50%, as measured by cytoplasmic LDH activity.

As to `O[C@H](CNC[C@@H](O)[C@H]1CCc2cc(F)ccc2O1)[C@@H]1CCc2cc(F)ccc2O1` (relative stereo) [nebivolol, (RSSS) and (SRRR) α,α'-iminobis(methylene)bis[6-fluoro-2-chroman-methanol]], in assay [1], the “protection from cell death” value was “protected these cultures from cell death with high potency” and the IC50 was 9.1 ± 0.1 nM. Also, in assay [1] (C6 glioma, 48 h), the IC50 was roughly 9 nM. Also, in assay [2], the intracellular glutathione levels result was “remained about half the levels seen in healthy control cells” and the GSH content worked out at 301 ± 12 pmol/well. Besides, the “% vitE complementation” value in assay [3] (10^-6 M) is on record as 29 ± 28%. Moreover, in assay [3] (10^-7 M), the “% vitE complementation” value was 29 ± 29%. Besides, in assay [3], the “rescue of survival of vitE depleted cultures” value is “able to rescue survival of vitE depleted cultures to a certain extent”.
For the compound `Oc1ccc2c(c1)CCC(C(O)CNCC(O)C1CCc3ccccc3O1)O2` (stereo not drawn) [Compound A, [(RRSR)+(RRRS)+(SSSR) +(SSRS)]-α-[[[2-(chroman-2-yl)-2-hydroxy-ethyl]amino]methyl]-6-hydroxy-2-chromanmethanol ethanedioate (1:1)], in assay [1], the “protection from cell death” value is on record as “protected these cultures from cell death with high potency” and the half-maximal inhibitory concentration (IC50) amounted to 8.6 ± 0.2 nM. Further, the 50% inhibitory concentration (IC50) in assay [1] (C6 glioma, 48 h) is roughly 9 nM. Besides, in assay [2], the intracellular glutathione levels result is given as “remained about half the levels seen in healthy control cells” and the GSH content came out at 301 ± 12 pmol/well. In assay [3] (10^-6 M), the “% vitE complementation” value is recorded as 85 ± 21% and the “rescue of primary neuronal cultures grown in VitE depleted medium” value is on record as “complete rescue”. Besides, the “% vitE complementation” value in assay [3] (10^-7 M) came out at 27 ± 28%. In addition, the “rescue of survival of vitE depleted cultures” value in assay [3] is given as “able to rescue survival of vitE depleted cultures to a certain extent”. The EC50 in assay [3] (Rattus norvegicus, 5 dose responses, cytoplasmic LDH activity, read-out: mean EC50 ± SD for complementation of vitE) is 126 ± 88 nM.
